Source: patent US6515159B2, “S,S-ethylenediamine-N,N′-disuccinic acid iron alkali salt and a process for production thereof” (Mitsubishi Rayon Co., Ltd., priority 1997, dated 2003)

Legend:
[1] = storage stability of 40% aqueous solution (dissolution state after storage); format: physicochemical; conditions: 40% aqueous solution stored at 50° C. for 1 week, then diluted to 1%
Description: Each of the powders obtained in Examples 1, 10 and 13 and Comparative Examples 1 and 3 was dissolved to obtain a 40% aqueous solution. The solution was stored at 50° C. for 1 week and then diluted to 1% and the dissolution state of the resulting diluted solution was observed.

Row | Compound | pH of aqueous solution | dissolution state of the resulting diluted solution [1]
1 | O=C(O)C[C@H](NCCN[C@@H](CC(=O)O)C(=O)O)C(=O)O [S,S-ethylenediamine-N,N′-disuccinic acid] | ~2 | –
2 | O=C([O-])C[C@H](NCCN[C@@H](CC(=O)[O-])C(=O)[O-])C(=O)[O-].[Fe+3].[Na+] [Example 1, S,S-ethylenediamine-N,N′-disuccinic acid iron sodium salt] | – | no insoluble material was found
